From patent publication US20200079758A1, “[4-(PHENYLSULFONYL)PIPERAZIN-1-YL](1H-1,2,3-TRIAZOL-4-YL)METHANONES” (priority 2016, published 2020) come the findings set out here.

SMILES strings stand for the structures.

The target in this assay is T1, recombinant human AKR1C3 (Homo sapiens, UniProt P42330).
T1 construct: GST (cleaved yes); made in house; host or cells: E. coli
T1 sequence (P42330 1-323): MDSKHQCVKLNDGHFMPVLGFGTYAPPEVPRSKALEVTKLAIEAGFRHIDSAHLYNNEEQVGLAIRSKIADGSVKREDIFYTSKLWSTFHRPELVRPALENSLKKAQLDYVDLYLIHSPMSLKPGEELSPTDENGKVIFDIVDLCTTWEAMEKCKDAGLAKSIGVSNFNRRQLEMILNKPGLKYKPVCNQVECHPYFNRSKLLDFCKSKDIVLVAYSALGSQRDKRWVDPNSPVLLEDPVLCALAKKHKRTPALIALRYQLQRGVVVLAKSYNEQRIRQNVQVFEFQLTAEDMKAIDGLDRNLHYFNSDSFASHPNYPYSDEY
In words: AKR1C3-inhibitory activity assay (generation of Coumberol from Coumberone). The settings on record: Coumberone 0.3 μM, NADPH 10 μM, 22° C., typically 90 min, average or median values. It is filed as biochemical. In a few lines:
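Recombinant human AKR1C3 (E. coli GST fusion, GST removed; ~1 nM) preincubated 15 min with compound, then NADPH 10 μM and Coumberone 0.3 μM (final), 22 °C, typically 90 min, in 50 mM K-phosphate pH 7. Stopped with EM-1404 (1 μM final); Coumberol fluorescence read at 520 nm (ex 380 nm), normalized to no-inhibitor and no-enzyme controls.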
The term IC50 denotes the concentration at which inhibition is half-maximal. Turning to `C[C@@H]1CN(C(=O)c2cnn[nH]2)[C@@H](C)CN1S(=O)(=O)c1c(F)cccc1F` [Example 79, {(2S,5R)-4-[(2,6-difluorophenyl)sulfonyl]-2,5-dimethylpiperazin-1-yl}(1H-1,2,3-triazol-5-yl)methanone], the IC50 turned out to be 2 nM. The value for `CC(=O)Nc1cccc(S(=O)(=O)N2C[C@H](C)N(C(=O)c3cnn[nH]3)C[C@H]2C)c1` [Example 80, N-(3-{[(2R,5S)-2,5-dimethyl-4-(1H-1,2,3-triazol-5-ylcarbonyl)piperazin-1-yl]sulfonyl}phenyl)acetamide] was 104 nM. The value for `C[C@@H]1CN(C(=O)c2cnn[nH]2)[C@@H](C)CN1S(=O)(=O)c1cccc(S(C)(=O)=O)c1` [Example 81, [(2S,5R)-2,5-dimethyl-4-{[3-(methylsulfonyl)phenyl]sulfonyl}piperazin-1-yl](1H-1,2,3-triazol-5-yl)methanone] was 32 nM; that for `C[C@@H]1CN(C(=O)c2cnn[nH]2)[C@@H](C)CN1S(=O)(=O)c1ccc(F)c(F)c1` [Example 82, {(2S,5R)-4-[(3,4-difluorophenyl)sulfonyl]-2,5-dimethylpiperazin-1-yl}(1H-1,2,3-triazol-5-yl)methanone] was 2 nM; that for `C[C@@H]1CN(C(=O)c2cnn[nH]2)[C@@H](C)CN1S(=O)(=O)c1cccc(C#N)c1` [Example 83, 3-{[(2R,5S)-2,5-dimethyl-4-(1H-1,2,3-triazol-5-ylcarbonyl)piperazin-1-yl]sulfonyl}benzonitrile] was 3 nM. The value for `C[C@@H]1CN(C(=O)c2cnn[nH]2)[C@@H](C)CN1S(=O)(=O)c1ccccc1S(C)(=O)=O` [Example 84, [(2S,5R)-2,5-dimethyl-4-{[2-(methylsulfonyl)phenyl]sulfonyl}piperazin-1-yl](1H-1,2,3-triazol-5-yl)methanone] was 37 nM; that for `C[C@@H]1CN(C(=O)c2cnn[nH]2)[C@@H](C)CN1S(=O)(=O)c1cccc(OC(F)(F)F)c1` [Example 85, [(2S,5R)-2,5-dimethyl-4-{[3-(trifluoromethoxy)phenyl]sulfonyl}piperazin-1-yl](1H-1,2,3-triazol-5-yl)methanone] was 2 nM. For `C[C@@H]1CN(C(=O)c2cnn[nH]2)[C@@H](C)CN1S(=O)(=O)c1ccccc1-c1ccccc1` [Example 86, [(2S,5R)-4-(biphenyl-2-ylsulfonyl)-2,5-dimethylpiperazin-1-yl](1H-1,2,3-triazol-5-yl)methanone], the IC50 is 32 nM. The value for `COc1cccc(S(=O)(=O)N2C[C@H](C)N(C(=O)c3cnn[nH]3)C[C@H]2C)c1` [Example 87, {(2S,5R)-4-[(3-methoxyphenyl)sulfonyl]-2,5-dimethylpiperazin-1-yl}(1H-1,2,3-triazol-5-yl)methanone] was 2 nM; that for `C[C@@H]1CN(C(=O)c2cnn[nH]2)[C@@H](C)CN1S(=O)(=O)Cc1c(F)cccc1F` [Example 88, {(2S,5R)-4-[(2,6-difluorobenzyl)sulfonyl]-2,5-dimethylpiperazin-1-yl}(1H-1,2,3-triazol-5-yl)methanone] was 79 nM; that for `C[C@@H]1CN(C(=O)c2cnn[nH]2)[C@@H](C)CN1S(=O)(=O)c1cc(Cl)ccc1C(F)(F)F` [Example 89, [(2S,5R)-4-{[5-chloro-2-(trifluoromethyl)phenyl]sulfonyl}-2,5-dimethylpiperazin-1-yl](1H-1,2,3-triazol-5-yl)methanone] was 2 nM. The same measure for `C[C@@H]1CN(C(=O)c2cnn[nH]2)[C@@H](C)CN1S(=O)(=O)c1cc(C(F)(F)F)cc(C(F)(F)F)c1` [Example 90, [(2S,5R)-4-{[3,5-bis(trifluoromethyl)phenyl]sulfonyl}-2,5-dimethylpiperazin-1-yl](1H-1,2,3-triazol-5-yl)methanone]: 5 nM; for `C[C@@H]1CN(C(=O)c2cnn[nH]2)[C@@H](C)CN1S(=O)(=O)c1ccc(F)c(Cl)c1` [Example 91, {(2S,5R)-4-[(3-chloro-4-fluorophenyl)sulfonyl]-2,5-dimethylpiperazin-1-yl}(1H-1,2,3-triazol-5-yl)methanone]: 1 nM. The value for `Cc1cc(C)cc(S(=O)(=O)N2C[C@H](C)N(C(=O)c3cnn[nH]3)C[C@H]2C)c1` [Example 92, {(2S,5R)-4-[(3,5-dimethylphenyl)sulfonyl]-2,5-dimethylpiperazin-1-yl}(1H-1,2,3-triazol-5-yl)methanone] was 1 nM; that for `C[C@@H]1CN(S(=O)(=O)c2ccc(Br)cc2)C[C@H](C)N1C(=O)c1cnn[nH]1` [Example 93, {(2R,6S)-4-[(4-bromophenyl)sulfonyl]-2,6-dimethylpiperazin-1-yl}(1H-1,2,3-triazol-5-yl)methanone] was 30 nM; that for `C[C@@H]1CN(S(=O)(=O)c2ccc(Cl)cc2)C[C@H](C)N1C(=O)c1cnn[nH]1` [Example 95, {(2R,6S)-4-[(4-chlorophenyl)sulfonyl]-2,6-dimethylpiperazin-1-yl}(1H-1,2,3-triazol-5-yl)methanone] was 20 nM.

As for `C[C@@H]1CN(S(=O)(=O)c2cccc3ccccc23)C[C@H](C)N1C(=O)c1cnn[nH]1` [Example 96, [(2R,6S)-2,6-dimethyl-4-(naphthalen-1-ylsulfonyl)piperazin-1-yl](1H-1,2,3-triazol-5-yl)methanone], the IC50 is 2 nM. As to `COc1ccc(S(=O)(=O)N2C[C@@H](C)N(C(=O)c3cnn[nH]3)[C@@H](C)C2)cc1` [Example 97, {(2R,6S)-4-[(4-methoxyphenyl)sulfonyl]-2,6-dimethylpiperazin-1-yl}(1H-1,2,3-triazol-5-yl)methanone], the IC50 was found to be 151 nM. The value for `C[C@@H]1CN(S(=O)(=O)c2cc(C(F)(F)F)cc(C(F)(F)F)c2)C[C@H](C)N1C(=O)c1cnn[nH]1` [Example 98, [(2R,6S)-4-{[3,5-bis(trifluoromethyl)phenyl]sulfonyl}-2,6-dimethylpiperazin-1-yl](1H-1,2,3-triazol-5-yl)methanone] was 56 nM; that for `Cc1ccc(C)c(S(=O)(=O)N2C[C@@H](C)N(C(=O)c3cnn[nH]3)[C@@H](C)C2)c1` [Example 99, {(2R,6S)-4-[(2,5-dimethylphenyl)sulfonyl]-2,6-dimethylpiperazin-1-yl}(1H-1,2,3-triazol-5-yl)methanone] was 3 nM. The value for `C[C@@H]1CN(S(=O)(=O)c2ccc(F)c(Cl)c2)C[C@H](C)N1C(=O)c1cnn[nH]1` [Example 100, {(2R,6S)-4-[(3-chloro-4-fluorophenyl)sulfonyl]-2,6-dimethylpiperazin-1-yl}(1H-1,2,3-triazol-5-yl)methanone] was 20 nM. The same measure for `C[C@@H]1CN(S(=O)(=O)c2ccc(OC(F)(F)F)cc2)C[C@H](C)N1C(=O)c1cnn[nH]1` [Example 101, [(2R,6S)-2,6-dimethyl-4-{[4-(trifluoromethoxy)phenyl]sulfonyl}piperazin-1-yl](1H-1,2,3-triazol-5-yl)methanone]: 399 nM. Consider `C[C@@H]1CN(S(=O)(=O)c2ccccc2Br)C[C@H](C)N1C(=O)c1cnn[nH]1` [Example 102, {(2R,6S)-4-[(2-bromophenyl)sulfonyl]-2,6-dimethylpiperazin-1-yl}(1H-1,2,3-triazol-5-yl)methanone], for which the IC50 was found to be 1 nM. The value for `Cc1c(Cl)cccc1S(=O)(=O)N1C[C@@H](C)N(C(=O)c2cnn[nH]2)[C@@H](C)C1` [Example 103, {(2R,6S)-4-[(3-chloro-2-methylphenyl)sulfonyl]-2,6-dimethylpiperazin-1-yl}(1H-1,2,3-triazol-5-yl)methanone] was 2 nM.

On to `C[C@@H]1CN(S(=O)(=O)c2cccc(OC(F)(F)F)c2)C[C@H](C)N1C(=O)c1cnn[nH]1` [Example 106, [(2R,6S)-2,6-dimethyl-4-{[3-(trifluoromethoxy)phenyl]sulfonyl}piperazin-1-yl](1H-1,2,3-triazol-5-yl)methanone], for which the IC50 was found to be 34 nM. The same measure for `C[C@@H]1CN(S(=O)(=O)c2ccccc2-c2ccccc2)C[C@H](C)N1C(=O)c1cnn[nH]1` [Example 107, [(2R,6S)-4-(biphenyl-2-ylsulfonyl)-2,6-dimethylpiperazin-1-yl](1H-1,2,3-triazol-5-yl)methanone]: 245 nM; for `COc1cccc(S(=O)(=O)N2C[C@@H](C)N(C(=O)c3cnn[nH]3)[C@@H](C)C2)c1` [Example 108, {(2R,6S)-4-[(3-methoxyphenyl)sulfonyl]-2,6-dimethylpiperazin-1-yl}(1H-1,2,3-triazol-5-yl)methanone]: 40 nM. Consider `CC1(C)CN(C(=O)c2cnn[nH]2)CCN1S(=O)(=O)c1ccc(Br)cc1` [Example 109, {4-[(4-bromophenyl)sulfonyl]-3,3-dimethylpiperazin-1-yl}(1H-1,2,3-triazol-5-yl)methanone], for which the IC50 is 4 nM. Turning to `CC1(C)CN(C(=O)c2cnn[nH]2)CCN1S(=O)(=O)c1ccc(Cl)cc1` [Example 110, {4-[(4-chlorophenyl)sulfonyl]-3,3-dimethylpiperazin-1-yl}(1H-1,2,3-triazol-5-yl)methanone], the IC50 was 5 nM. For the compound `CC1(C)CN(C(=O)c2cnn[nH]2)CCN1S(=O)(=O)c1ccc([N+](=O)[O-])cc1` [Example 111, {3,3-dimethyl-4-[(4-nitrophenyl)sulfonyl]piperazin-1-yl}(1H-1,2,3-triazol-5-yl)methanone], the IC50 amounted to 89 nM.
